How the values were obtained:
CD8+ T cells = assay: Cytokine and cytolytic granule production of CD8+ T cells stimulated with plate-bound anti-CD3/CD28; type: cell-based, mouse; conditions: pretreated with compound vs vehicle (DMSO); stimulated with 5 μg/ml plate-bound anti-CD3/CD28
Experimental: Peripheral T cells were isolated from mouse spleen and draining lymph nodes by a CD8^+ or CD4^+ T cell negative selection kit (Stem cell). To analyse the tumour-infiltrating T cells, tumours were first digested by collagenase IV (sigma), and tumour-infiltrating leukocytes were isolated by 40-70% percoll (GE) gradient centrifugation. To measure the effector function of CD8^+ T cells, the isolated cells were first stimulated with 1 μM ionomycin and 50 ng/ml PMA for 4 hours in the presence of 5 μg/ml BFA, and then stained with PERCP-α-CD8a. Next, cells were fixed with 4% PFA and stained with FITC-α-Granzyme B, APC-α-IFNγ and PE-α-TNFα. In general, to gate the cytokine or granule producing cells, T cells without stimulation or stained with isotype control antibody were used as negative controls. This gating strategy is applicable for most of the flow cytometric analyses. To detect the MDSCs (myeloid-derived suppressor cells) in the tumour, the percoll isolated leukocyte were stained with α-CD45, α-CD11b and α-Ly6G (Gr1), the CD45^+ population was gated, after which the MDSC population (CD11b^+ Gr1^+) in CD45^+ were gated.
(§1) CD8^+ T cells were pretreated with vehicle (dimethylsulfoxide, DMSO), CP-113,818 or K604. Then the cells were stimulated with 5 μg ml^−1 plate-bound anti-CD3/CD28, and cytokine and cytolytic granule production was studied. Cytotoxicity of OT-I CTLs pretreated with CP-113,818 or K604 or vehicle was also studied.

OT-I CTLs = assay: CD8+ T-cell (OT-I CTL) cytotoxicity against antigen-pulsed EL-4 cells, LDH release; type: cell-based, mouse; conditions: for cytotoxicity of CD8+ T cells: OT-I CTLs pretreated with compound vs vehicle
Experimental: To generate mature Cytotoxic T lymphocytes (CTLs), splenocytes isolated from Acat1^CKO-OT-I mice or WT OT-I mice were stimulated with OVA257-264 (N4) for 3 days in the presence of 10 ng/ml IL-2. Cells were centrifuged and cultured in fresh medium containing 10 ng/ml IL-2 for 2 more days, after which most of the cells in the culture were CTLs. To measure CD8^+ T-cell cytotoxicity, EL-4 cells were pulsed with 2 nM antigenic peptide (N4, A2, T4, G4, R4 or Catnb) for 30 minutes. After washing EL-4 cells and CTLs three times with PBS, we mixed CTLs and antigen-pulsed EL-4 cells (1×10^5) in the killing medium (phenol free-RPMI 1640, 2% FBS), at the ratio of 1:1, 1:2 and 1:5, respectively. After 4 hours, the cytotoxic efficiency was measured by quantifying the release of endogenous lactate dehydrogenase (LDH) from EL-4 cells using a CytoTox 96 Non-Radioactive Cytotoxicity kit (Promega).
as §1
To study ACAT1 inhibitors in cancer immunotherapies in mice, melanoma-bearing mice were treated with a potent ACAT-1 inhibitor, avasimibe (Ava), or DMSO control, and tumour size and survival were studied. A combined therapy (avasimibe and anti-PD-1) or monotherapies (avasimibe or anti-PD-1) were also studied and compared in treating melanoma. In a lung cancer model, Lewis lung carcinoma-bearing mice were treated with avasimibe or DMSO control, and tumour multiplicity and survival were studied. Cytokine productions of stimulated human (h) CD8^+ T cells pretreated with avasimibe, CP-113,818, or DMSO. CTL cytotoxicity after avasimibe treatment was measured by the LDH assay. OT-I CTLs were pretreated with avasimibe or vehicle for 6 h and then incubated with EL-4 cells pulsed with OVA257-264 peptide for 4 h.

[1] = test system: Lewis lung carcinoma (LLC); assay: Lewis lung carcinoma (LLC) model, avasimibe therapy; type: in vivo, mouse; conditions: avasimibe 15 mg/kg intraperitoneally every 3 days, Day 10 to Day 35, vs DMSO control
Experimental: (§2) A combined therapy (avasimibe and anti-PD-1) or monotherapies (avasimibe or anti-PD-1) were also studied and compared in treating melanoma. In a lung cancer model, Lewis lung carcinoma-bearing mice were treated with avasimibe or DMSO control, and tumour multiplicity and survival were studied. […] CTL cytotoxicity after avasimibe treatment was measured by the LDH assay. OT-I CTLs were pretreated with avasimibe or vehicle for 6 h and then incubated with EL-4 cells pulsed with OVA257-264 peptide for 4 h.

[2] = cited from earlier work
human CD8+ T cells = assay: Human CD8+ T-cell cytokine production; type: cell-based; conditions: PBMCs pretreated 12 hours, then plate-bound α-CD3/α-CD28 for 24 hours; vs DMSO
Experimental: Human peripheral blood mononuclear cells (PBMCs) from healthy donators were stimulated with 5 μg/ml PHA (Sigma) for 2 days and then rested for 1 day. Cells were pretreated with vehicle (DMSO), CP113, 818 or avasimibe for 12 hours and then stimulated with plate-bound α-CD3 (5 μg/ml) and α-CD28 (5 μg/ml) antibodies for 24 hours. Intracellular staining and flow cytometry were used to assess cytokines production of CD8^+ T cells. […] A combined therapy (avasimibe and anti-PD-1) or monotherapies (avasimibe or anti-PD-1) were also studied and compared in treating melanoma. In a lung cancer model, Lewis lung carcinoma-bearing mice were treated with avasimibe or DMSO control, and tumour multiplicity and survival were studied. […] CTL cytotoxicity after avasimibe treatment was measured by the LDH assay. OT-I CTLs were pretreated with avasimibe or vehicle for 6 h and then incubated with EL-4 cells pulsed with OVA257-264 peptide for 4 h.

B16F10 melanoma = assay: Skin melanoma mouse model (B16F10), avasimibe therapy; type: in vivo; conditions: melanoma-bearing mice; avasimibe 15 mg/kg intraperitoneally every 2 days from Day 10, vs DMSO control
Experimental: as §2

Q: For CC[C@H](C)C(=O)O[C@H]1C[C@@H](C)C=C2C=C[C@H](C)[C@H](CC[C@@H]3C[C@@H](O)CC(=O)O3)[C@H]21 [Lovastatin], which “cytolytic granule and cytokine productions of CD8+ T cells” value (CD8+ T cells) is on record?
A: significantly decreased

Q: What does the source list for CCCCCCCC[C@H](SCCCCCC)C(=O)Nc1c(SC)cc(C)nc1SC [CP-113,818, (S)—N-(2,4-Bis(methylthio)-6-methylpyridin-3-yl)-2-(hexylthio)decanoic acid amide]?
A: cytotoxicity of CD8+ T cells (OT-I CTLs): augmented; cytolytic granule and cytokine productions of CD8+ T cells (CD8+ T cells): augmented

Q: Which “cytolytic granule and cytokine productions of CD8+ T cells” value (CD8+ T cells) does the source give for CCN(CC)CCO[C@H]1CC[C@@]2(C)C(=CC[C@@H]3[C@@H]2CC[C@]2(C)C(=O)CC[C@@H]32)C1 [U18666A] here?
A: significantly decreased

Q: Which results are given for CSc1cc(C)nc(SC)c1NC(=O)CN1CCN(CCSc2nc3ccccc3[nH]2)CC1 [K604, 2-[4-[2-(benzimidazol-2-ylthio)ethyl]piperazin-1yl]-N-[2,4-bis(methylthio)-6-methyl-3-pyridyl]acetamide]?
A: cytotoxicity of CD8+ T cells (OT-I CTLs): augmented; cytolytic granule and cytokine productions of CD8+ T cells (CD8+ T cells): augmented

Q: What does the source list for CC(C)c1cc(C(C)C)c(CC(=O)NS(=O)(=O)Oc2c(C(C)C)cccc2C(C)C)c(C(C)C)c1 [avasimibe, [2,6-di(propan-2-yl)phenyl] N-[2-[2,4,6-tri(propan-2-yl)phenyl]acetyl]sulfamate]?
A: effector function of mouse CD8+ T cells ex vivo (OT-I CTLs; OT-I CTLs pretreated with avasimibe or vehicle for 6 h, EL-4 cells pulsed with OVA257-264 for 4 h, LDH assay): enhance; antitumor effect in Lewis lung carcinoma (tumour multiplicity and survival) [1]: good antitumor effect; well tolerated dose ([2]; adult human subjects, four times daily (i.e., 3000 mg/day), Kharbanda et al (2005)): ≥ 750 mg; human safety profile ([2]; clinical trials for treating atherosclerosis): good human safety profile; cytokine production of human CD8+ T cells (human CD8+ T cells): enhanced; survival time (B16F10 melanoma): prolonged; tumour growth (B16F10 melanoma): inhibited
